Here are results for 40 compounds from publication PMC10384010, “Chromatographic Data in Statistical Analysis of BBB Permeability Indices” (Membranes, 2023).

What all share (format): physicochemical
The nature of series [1]: Normal-phase TLC on silica gel 60 F254 (Rf). To be noted: water:methanol:acetonitrile 60:20:20, ammonium acetate pH 7.4.
Series [2] in a line: Reversed-phase TLC on RP-2 silanized plates (Rf). To be noted: silica gel 60 RP-2 F254 silanized; water:methanol:acetonitrile 60:20:20, ammonium acetate pH 7.4.
The nature of series [3]: HPLC on IAM (immobilized artificial membrane) column, retention factor. The conditions noted are these: IAM.PC.DD.2 column; for k(IAM) retention factor: 10 mM phosphate buffer pH 7.4:acetonitrile 80:20; for logkIAM: logarithm of retention factor, phosphate buffer pH 7.4:acetonitrile 80:20.

With `Oc1ncnc2[nH]ncc12` [allopurinnol], in series [1], the “NP (Rf from NP TLC plate)” value stood at 0.89. Besides, in series [2], the “RP (Rf from RP-2 TLC plate)” value came out at 0.97.
Consider `CCCCc1oc2ccccc2c1C(=O)c1cc(I)c(OCCN(CC)CC)c(I)c1` [amiodarone], for which the “RP (Rf from RP-2 TLC plate)” value in series [2] was found to be 0.33.
Regarding `CCOC(=O)C1=C(COCCN)NC(C)=C(C(=O)OC)C1c1ccccc1Cl` (stereo not drawn) [amlodipine], in series [2], the “RP (Rf from RP-2 TLC plate)” value turned out to be 0.61. For the same compound, in series [3], the “k(IAM) retention factor” value is reported as 98.90 and the logkIAM turned out to be 2.00.
With `CC(C)NCC(O)COc1ccc(CC(N)=O)cc1` (stereo not drawn) [atenolol], in series [1], the “NP (Rf from NP TLC plate)” value is on record as 0.34. Moreover, in series [2], the “RP (Rf from RP-2 TLC plate)” value was 0.58.
Consider `CC(C)c1c(C(=O)Nc2ccccc2)c(-c2ccccc2)c(-c2ccc(F)cc2)n1CC[C@@H](O)C[C@@H](O)CC(=O)O` [atorvastatin], for which, in series [2], the “RP (Rf from RP-2 TLC plate)” value turned out to be 0.8.
`O=C1CC2(CCCC2)CC(=O)N1CCCCN1CCN(c2ncccn2)CC1` [buspirone]: in series [1], the “NP (Rf from NP TLC plate)” value was found to be 0.57. Besides, in series [3], the “k(IAM) retention factor” value worked out at 7.00 and the logkIAM was determined as 0.84.
The corresponding values for `Cn1c(=O)c2c(ncn2C)n(C)c1=O` [caffeine] are 0.82, 0.18 and -0.75.
The corresponding values for `C[C@H](CS)C(=O)N1CCC[C@H]1C(=O)O` [captopril] are 0.77, 0.01 and -2.19.
As for `O=C(N[C@H](CO)[C@H](O)c1ccc([N+](=O)[O-])cc1)C(Cl)Cl` [chloramphenikol], the “NP (Rf from NP TLC plate)” value in series [1] turned out to be 0.99. Moreover, the “RP (Rf from RP-2 TLC plate)” value in series [2] worked out at 0.89. Besides, in series [3], the “k(IAM) retention factor” value stood at 1.08 and the logkIAM was 0.03.
Consider `O=C(O)c1cn(C2CC2)c2cc(N3CCNCC3)c(F)cc2c1=O` [ciprofloxacin], for which the “NP (Rf from NP TLC plate)” value in series [1] was 0.11. In addition, the “RP (Rf from RP-2 TLC plate)” value in series [2] is recorded as 0.38.
For `CN(C)CCCN1c2ccccc2CCc2ccc(Cl)cc21` [clomipramine], in series [1], the “NP (Rf from NP TLC plate)” value stood at 0.33.
For the compound `Clc1ccc2c(c1)CCc1cccnc1C2=C1CCNCC1` [desloratidine], in series [3], the “k(IAM) retention factor” value stood at 50.45 and the logkIAM was 1.70.
On to `C[C@H]1O[C@@H](O[C@H]2[C@@H](O)C[C@H](O[C@H]3[C@@H](O)C[C@H](O[C@H]4CC[C@@]5(C)[C@H](CC[C@@H]6[C@@H]5C[C@@H](O)[C@]5(C)[C@@H](C7=CC(=O)OC7)CC[C@]65O)C4)O[C@@H]3C)O[C@@H]2C)C[C@H](O)[C@@H]1O` [digoxin], for which, in series [3], the “k(IAM) retention factor” value was 3.69 and the logkIAM turned out to be 0.57.
In the case of `COc1cc2nc(N3CCN(C(=O)C4COc5ccccc5O4)CC3)nc(N)c2cc1OC` (stereo not drawn) [doxazosin], in series [2], the “RP (Rf from RP-2 TLC plate)” value is 0.75. In series [3], the “k(IAM) retention factor” value came to 0.22 and the logkIAM was -0.66.
In the case of `NC(N)=Nc1nc(CSCCC(N)=NS(N)(=O)=O)cs1` [famotidine], the “NP (Rf from NP TLC plate)” value in series [1] is 0.7. Besides, the “RP (Rf from RP-2 TLC plate)” value in series [2] worked out at 0.98.
Regarding `OC(Cn1cncn1)(Cn1cncn1)c1ccc(F)cc1F` [fluconazole], the “NP (Rf from NP TLC plate)” value in series [1] came to 0.87. For the same compound, the “RP (Rf from RP-2 TLC plate)” value in series [2] is listed as 0.9.
As for `COCCCC/C(=N\OCCN)c1ccc(C(F)(F)F)cc1` [fluvoxamine], in series [1], the “NP (Rf from NP TLC plate)” value stood at 0.34.
`CC(C)Cc1ccc(C(C)C(=O)O)cc1` (stereo not drawn) [ibuprofen]: in series [3], the “k(IAM) retention factor” value was determined as 0.86 and the logkIAM is -0.07.
Consider `CC(C(=O)O)c1cccc(C(=O)c2ccccc2)c1` (stereo not drawn) [ketoprofen], for which, in series [3], the “k(IAM) retention factor” value was 0.20 and the logkIAM is -0.71.
Regarding `O=C(O)COCCN1CCN([C@H](c2ccccc2)c2ccc(Cl)cc2)CC1` [levocetrizine], in series [1], the “NP (Rf from NP TLC plate)” value is 0.63. The logkIAM in series [3] is listed as 0.58.
For the compound `CN(C)C(=O)C(CCN1CCC(O)(c2ccc(Cl)cc2)CC1)(c1ccccc1)c1ccccc1` [loperamide], the “NP (Rf from NP TLC plate)” value in series [1] amounted to 0.68. Further, in series [2], the “RP (Rf from RP-2 TLC plate)” value is 0.75.
`Cc1cnc(NC(=O)C2=C(O)c3ccccc3S(=O)(=O)N2C)s1` [meloxicam]: the “NP (Rf from NP TLC plate)” value in series [1] is 0.99. Further, in series [3], the “k(IAM) retention factor” value is recorded as 0.49 and the logkIAM is -0.31.
Turning to `CCN(CC)CCNC(=O)c1cc(Cl)c(N)cc1OC` [metoclopramide], in series [3], the “k(IAM) retention factor” value is 6.16 and the logkIAM worked out at 0.79.
For `Nc1cc(N2CCCCC2)nc(N)[n+]1[O-]` [minoxidil], the “NP (Rf from NP TLC plate)” value in series [1] stood at 0.43.
On to `CC(C)(O)c1ccccc1CC[C@@H](SCC1(CC(=O)O)CC1)c1cccc(/C=C/c2ccc3ccc(Cl)cc3n2)c1` [montelukast], for which, in series [3], the “k(IAM) retention factor” value is listed as 99.10 and the logkIAM is 2.00.
For `COc1ccc2cc([C@H](C)C(=O)O)ccc2c1` [naproxen], in series [1], the “NP (Rf from NP TLC plate)” value is 0.92. In series [2], the “RP (Rf from RP-2 TLC plate)” value is 0.88.
Turning to `Cc1cc2c(s1)Nc1ccccc1N=C2N1CCN(C)CC1` [olanzapine], in series [3], the “k(IAM) retention factor” value turned out to be 20.31 and the logkIAM is listed as 1.31.
On to `CCC1(c2ccccc2)C(=O)NCNC1=O` [primidone], for which the “NP (Rf from NP TLC plate)” value in series [1] is recorded as 0.9. Besides, the “RP (Rf from RP-2 TLC plate)” value in series [2] is given as 0.93.
The corresponding values for `CCCNCC(O)COc1ccccc1C(=O)CCc1ccccc1` (stereo not drawn) [propafenone] are 0.57 and 0.56.
For the compound `CC(C)NCC(O)COc1cccc2ccccc12` (stereo not drawn) [propranolol], the “NP (Rf from NP TLC plate)” value in series [1] was 0.54. In series [3], the “k(IAM) retention factor” value stood at 28.09 and the logkIAM stood at 1.45.
Regarding `CN[C@@H](C)[C@@H](O)c1ccccc1` [pseudoephedrine], in series [3], the “k(IAM) retention factor” value is listed as 2.21 and the logkIAM is on record as 0.34.
In the case of `CC(N)C12CC3CC(CC(C3)C1)C2` (stereo not drawn) [rimantadine], the “NP (Rf from NP TLC plate)” value in series [1] is 0.92. The “RP (Rf from RP-2 TLC plate)” value in series [2] amounted to 0.95.
Regarding `Cc1nc2n(c(=O)c1CCN1CCC(c3noc4cc(F)ccc34)CC1)CCCC2` [risperidone], in series [3], the “k(IAM) retention factor” value amounted to 4.83 and the logkIAM stood at 0.68.
On to `CCC(C)(C)C(=O)O[C@H]1C[C@@H](C)C=C2C=C[C@H](C)[C@H](CC[C@@H]3C[C@@H](O)CC(=O)O3)[C@H]21` [simvastatin], for which, in series [1], the “NP (Rf from NP TLC plate)” value is 0.19. In addition, the “RP (Rf from RP-2 TLC plate)” value in series [2] was 0.66.
For the compound `CN1C(=O)C(O)N=C(c2ccccc2)c2cc(Cl)ccc21` (stereo not drawn) [temazepam], in series [3], the “k(IAM) retention factor” value amounted to 6.74 and the logkIAM turned out to be 0.83.
The corresponding values for `Cn1c(=O)c2[nH]cnc2n(C)c1=O` [theophylline] are 0.12 and -0.94.
In the case of `Cc1ccc(O)c([C@H](CCN(C(C)C)C(C)C)c2ccccc2)c1` [tolterodine], in series [3], the “k(IAM) retention factor” value is 0.21 and the logkIAM is -0.68.
For `Cc1ccc(-c2nc3ccc(C)cn3c2CC(=O)N(C)C)cc1` [zolpidem], in series [3], the “k(IAM) retention factor” value was 2.60 and the logkIAM was determined as 0.42.
On to PABA, for which, in series [3], the “k(IAM) retention factor” value is on record as 0.01 and the logkIAM was -1.88.
Consider gentamycin, for which, in series [1], the “NP (Rf from NP TLC plate)” value is listed as 0.96. Besides, the “RP (Rf from RP-2 TLC plate)” value in series [2] amounted to 0.911.
